Assay results taken from patent US20090239841A1, “Diaryl Ureas as CB1 Antagonists” (priority 2004, published 2009).

biological target: T1, hCB1 (Homo sapiens, UniProt P21554); assay: Agonist-induced GTP binding (GTPγ35S) assay at CB1, Example 8; assay type: biochemical; details: Table II; IC50 at CB1, GTP binding with 1 nM CP55,940; read-out: IC50
T1 construct: made in house; host or cells: Sf9 insect cells (baculovirus), P2 membranes
Summary of the method: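 Antagonism read as inhibition of 1 nM CP55,940-stimulated GTPγ35S ([…]) binding, compounds at 10^−10 to 10^−5 M. Baculovirus-infected Sf9 membranes bearing hCB1 plus G-protein subunits, 60 min room-temperature incubation with 5 μM GDP. Filtration and scintillation counting; data as percent over basal.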

T1 sequence (P21554 whole entry): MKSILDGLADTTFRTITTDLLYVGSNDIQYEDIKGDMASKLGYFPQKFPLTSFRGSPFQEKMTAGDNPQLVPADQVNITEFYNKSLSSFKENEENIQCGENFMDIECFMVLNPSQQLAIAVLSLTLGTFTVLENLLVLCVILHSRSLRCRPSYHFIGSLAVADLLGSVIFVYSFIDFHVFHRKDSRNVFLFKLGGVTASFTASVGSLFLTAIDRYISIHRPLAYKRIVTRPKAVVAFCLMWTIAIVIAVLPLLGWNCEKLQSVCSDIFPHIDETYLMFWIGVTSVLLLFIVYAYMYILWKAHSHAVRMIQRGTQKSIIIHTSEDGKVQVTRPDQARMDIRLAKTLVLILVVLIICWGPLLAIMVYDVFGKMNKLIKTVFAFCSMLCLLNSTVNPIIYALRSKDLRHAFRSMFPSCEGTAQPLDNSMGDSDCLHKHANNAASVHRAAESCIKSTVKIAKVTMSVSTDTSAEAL

IC50 [nM]	SMILES
< 2000	CC(=O)c1ccc(NC(=O)Nc2ccc(C(C)C)cc2)cc1 [Compound 196, N-(4-acetylphenyl)-N′-(4-isopropylphenyl)urea]
< 2000	CCCc1ccc(NC(=O)Nc2ccc(C#N)cc2)cc1 [Compound 197, N-(4-cyanophenyl)-N′-(4-propylphenyl)urea]
< 2000	CCCc1ccc(NC(=O)Nc2cccc(C#N)c2)cc1 [Compound 198, N-(3-cyanophenyl)-N′-(4-propylphenyl)urea]
< 2000	CCCc1ccc(NC(=O)Nc2cccc(C(C)=O)c2)cc1 [Compound 199, N-(3-acetylphenyl)-N′-(4-propylphenyl)urea]
< 2000	CCCc1ccc(NC(=O)Nc2ccc(C(C)=O)cc2)cc1 [Compound 200, N-(4-acetylphenyl)-N′-(4-propylphenyl)urea]
< 2000	CC(=O)c1ccc(NC(=O)Nc2cccc(Br)c2)cc1 [Compound 201, N-(4-acetylpheny-)-N′-(3-bromophenyl)urea]
< 2000	CCOc1cccc(NC(=O)Nc2ccc(C)cc2)c1 [Compound 202, N-(3-ethoxyphenyl)-N′-(4-methylphenyl)urea]
< 2000	CCOc1cccc(NC(=O)Nc2cccc(F)c2)c1 [Compound 203, N-(3-ethoxyphenyl)-N′-(3-fluorophenyl)urea]
< 2000	CCOc1cccc(NC(=O)Nc2ccc(F)cc2)c1 [Compound 204, N-(3-ethoxyphenyl)-N′-(4-fluorophenyl)urea]
< 2000	CCOc1ccc(NC(=O)Nc2cccc(F)c2)cc1 [Compound 205, N-(4-ethoxyphenyl)-N′-(3-fluorophenyl)urea]
< 2000	CCOc1ccc(NC(=O)Nc2ccc(F)cc2)cc1 [Compound 206, N-(4-ethoxyphenyl)-N′-(4-fluorophenyl)urea]
< 2000	COCc1ccc(NC(=O)Nc2ccc(C)cc2)cc1 [Compound 207, N-[4-(methoxymethyl)phenyl]-N′-(4-methylphenyl)urea]
< 2000	COCc1ccc(NC(=O)Nc2cccc(F)c2)cc1 [Compound 208, N-(3-fluorophenyl)-N′-[4-(methoxymethyl)phenyl]urea]
< 2000	CCCOc1ccc(NC(=O)Nc2cccc(F)c2)cc1 [Compound 209, N-(3-fluorophenyl)-N′-(4-propoxyphenyl)urea]
< 2000	CCCOc1ccc(NC(=O)Nc2ccc(F)cc2)cc1 [Compound 210, N-(4-fluorophenyl)-N′-(4-propoxyphenyl)urea]
< 2000	CC(C)Oc1cccc(NC(=O)Nc2cccc(F)c2)c1 [Compound 211, N-(3-fluorophenyl)-N′-(3-isopropoxyphenyl)urea]
< 2000	CC(C)Oc1cccc(NC(=O)Nc2ccc(F)cc2)c1 [Compound 212, N-(4-fluorophenyl)-N′-(3-isopropoxyphenyl)urea]
< 2000	Cc1cccc(NC(=O)Nc2ccc(OC(C)C)cc2)c1 [Compound 213, N-(4-isopropoxyphenyl)-N′-(3-methylphenyl)urea]
< 2000	Cc1ccc(NC(=O)Nc2ccc(OC(C)C)cc2)cc1 [Compound 214, N-(4-isopropoxyphenyl)-N′-(4-methylphenyl)urea]
< 2000	CC(C)Oc1ccc(NC(=O)Nc2cccc(F)c2)cc1 [Compound 215, N-(3-fluorophenyl)-N′-(4-isopropoxyphenyl)urea]

IC50 [nM]	SMILES
< 2000	CC(C)Oc1ccc(NC(=O)Nc2ccc(F)cc2)cc1 [Compound 216, N-(4-fluorophenyl)-N′-(4-isopropoxyphenyl)urea]
< 2000	Cc1cccc(NC(=O)Nc2cccc(OC(F)F)c2)c1 [Compound 217, N-[3-(difluoromethoxy)phenyl]-N′-(3-methylphenyl)urea]
< 2000	Cc1ccc(NC(=O)Nc2cccc(OC(F)F)c2)cc1 [Compound 218, N-[3-(difluoromethoxy)phenyl]-N′-(4-methylphenyl)urea]
< 2000	O=C(Nc1cccc(F)c1)Nc1cccc(OC(F)F)c1 [Compound 219, N-[3-(difluoromethoxy)phenyl]-N′-(3-fluorophenyl)urea]
< 2000	O=C(Nc1ccc(F)cc1)Nc1cccc(OC(F)F)c1 [Compound 220, N-[3-(difluoromethoxy)phenyl]-N′-(4-fluorophenyl)urea]
< 2000	O=C(Nc1ccc(F)cc1)Nc1ccc(OC(F)F)cc1 [Compound 221, N-[4-(difluoromethoxy)phenyl]-N′-(4-fluorophenyl)urea]
< 2000	CCOc1cccc(NC(=O)Nc2ccccc2)c1 [Compound 222, N-(3-ethoxyphenyl)-N′-phenylurea]
< 2000	CCOc1ccc(NC(=O)Nc2ccccc2)cc1 [Compound 223, N-(4-ethoxyphenyl)-N′-phenylurea]
< 2000	CC(C)Oc1ccc(NC(=O)Nc2ccccc2)cc1 [Compound 224, N-(4-isopropoxyphenyl)-N′-phenylurea]
< 2000	O=C(Nc1ccccc1)Nc1cccc(OC(F)F)c1 [Compound 225, N-[3-(difluoromethoxy)phenyl]-N′-phenylurea]
< 2000	Cc1ccccc1NC(=O)Nc1cccc(OC(F)F)c1 [Compound 226]
< 2000	CCc1ccccc1NC(=O)Nc1cccc(OC(F)F)c1 [Compound 227, N-[3-(difluoromethoxy)phenyl]-N′-(2-ethylphenyl)urea]
< 2000	CCc1ccc(NC(=O)Nc2ccc(OC)cc2)cc1 [Compound 228, N-(4-ethylphenyl)-N′-(4-methoxyphenyl)urea]
< 2000	COc1ccc(NC(=O)Nc2ccc(Cl)cc2)cc1 [Compound 229, N-(4-chlorophenyl)-N′-(4-methoxyphenyl)urea]
< 2000	CCOc1cccc(NC(=O)Nc2cccc(CC)c2)c1 [Compound 230, N-(3-ethoxyphenyl)-N′-(3-ethylphenyl)urea]
< 2000	CCOc1cccc(NC(=O)Nc2ccc(CC)cc2)c1 [Compound 231, N-(3-ethoxyphenyl)-N′-(4-ethylphenyl)urea]
< 2000	CCOc1cccc(NC(=O)Nc2cccc(Cl)c2)c1 [Compound 232, N-(3-chlorophenyl)-N′-(3-ethoxyphenyl)urea]
< 2000	CCOc1cccc(NC(=O)Nc2ccc(Cl)cc2)c1 [Compound 233, N-(4-chlorophenyl)-N′-(3-ethoxyphenyl)urea]
< 2000	CCOc1ccc(NC(=O)Nc2cccc(CC)c2)cc1 [Compound 234, N-(4-ethoxyphenyl)-N′-(3-ethylphenyl)urea]
< 2000	CCOc1ccc(NC(=O)Nc2ccc(CC)cc2)cc1 [Compound 235, N-(4-ethoxyphenyl)-N′-(4-ethylphenyl)urea]

IC50 [nM]	SMILES
< 2000	CCOc1ccc(NC(=O)Nc2cccc(Cl)c2)cc1 [Compound 236, N-(3-chlorophenyl)-N′-(4-ethoxyphenyl)urea]
< 2000	CCOc1ccc(NC(=O)Nc2ccc(Cl)cc2)cc1 [Compound 237, N-(4-chlorophenyl)-N′-(4-ethoxyphenyl)urea]
< 2000	CCc1ccc(NC(=O)Nc2cccc(COC)c2)cc1 [Compound 238, N-(4-ethylphenyl)-N′-[3-(methoxymethyl)phenyl]urea]
< 2000	CCc1cccc(NC(=O)Nc2ccc(COC)cc2)c1 [Compound 239, N-(3-ethylphenyl)-N′-[4-(methoxymethyl)phenyl]urea]
< 2000	CCc1ccc(NC(=O)Nc2ccc(COC)cc2)cc1 [Compound 240, N-(4-ethylphenyl)-N′-[4-(methoxymethyl)phenyl]urea]
< 2000	COCc1ccc(NC(=O)Nc2cccc(Cl)c2)cc1 [Compound 241, N-(3-chlorophenyl)-N′-[4-(methoxymethyl)phenyl]urea]
< 2000	COCc1ccc(NC(=O)Nc2ccc(Cl)cc2)cc1 [Compound 242, N-(4-chlorophenyl)-N′-[4-(methoxymethyl)phenyl]urea]
< 2000	CCCOc1ccc(NC(=O)Nc2cccc(CC)c2)cc1 [Compound 243, N-(3-ethylphenyl)-N′-(4-propoxyphenyl)urea]
< 2000	CCCOc1ccc(NC(=O)Nc2cccc(Cl)c2)cc1 [Compound 244, N-(3-chlorophenyl)-N′-(4-propoxyphenyl)urea]
< 2000	CCCOc1ccc(NC(=O)Nc2ccc(Cl)cc2)cc1 [Compound 245, N-(4-chlorophenyl)-N′-(4-propoxyphenyl)urea]
< 2000	CCc1cccc(NC(=O)Nc2cccc(OC(C)C)c2)c1 [Compound 246, N-(3-ethylphenyl)-N′-(3-isopropoxyphenyl)urea]
< 2000	CC(C)Oc1cccc(NC(=O)Nc2cccc(Cl)c2)c1 [Compound 247, N-(3-chlorophenyl)-N′-(3-isopropoxyphenyl)urea]
< 2000	CC(C)Oc1cccc(NC(=O)Nc2ccc(Cl)cc2)c1 [Compound 248]
< 2000	CCc1cccc(NC(=O)Nc2ccc(OC(C)C)cc2)c1 [Compound 249, N-(3-ethylphenyl)-N′-(4-isopropoxyphenyl)urea]
< 2000	CCc1ccc(NC(=O)Nc2ccc(OC(C)C)cc2)cc1 [Compound 250, N-(4-ethylphenyl)-N′-(4-isopropoxyphenyl)urea]
< 2000	CC(C)Oc1ccc(NC(=O)Nc2cccc(Cl)c2)cc1 [Compound 251, N-(3-chlorophenyl)-N′-(4-isopropoxyphenyl)urea]
< 2000	CC(C)Oc1ccc(NC(=O)Nc2ccc(Cl)cc2)cc1 [Compound 252, N-(4-chlorophenyl)-N′-(4-isopropoxyphenyl)urea]
< 2000	CCc1cccc(NC(=O)Nc2cccc(OC(F)F)c2)c1 [Compound 253, N-[3-(difluoromethoxy)phenyl]-N′-(3-ethylphenyl)urea]
< 2000	CCc1ccc(NC(=O)Nc2cccc(OC(F)F)c2)cc1 [Compound 254, N-[3-(difluoromethoxy)phenyl]-N′-(4-ethylphenyl)urea]
< 2000	O=C(Nc1cccc(Cl)c1)Nc1cccc(OC(F)F)c1 [Compound 255, N-(3-chlorophenyl)-N′-[3-(difluoromethoxy)phenyl]urea]
